# Test results as given in US6326378A, “Use of thiadiazolo[4,3-a]pyridine derivatives” (Roche Diagnostics GmbH, priority 1998, dated 2001).
# What was measured:
# [1] = tested on: mice; assay: Toxicity / tolerability in mice; type: in vivo, mouse; settings: p.o. and i.p.
# Description: (§1) The behaviour of the dogs was normal.
# [2] = tested on: conscious dogs (beagles); assay: Effect on heart rate and arterial blood pressure of conscious dogs; type: in vivo, dog; settings: for DBP / MAP / SBP / HR: 24 mg/kg oral
# Method: as §1
# Effect on heart rate and on arterial blood pressure
# of conscious dogs after oral administration of 24 mg/kg of the compound of […]
# [3] = tested on: Peripheral leucocytes; assay: Peripheral leucocytes, LPS, secretion of TNFα; type: cell-based; settings: Leucocyte; stimulus LPS
# Description: (§2) The compound from Example 2b inhibits the activation of various types of leucocytes under different stimuli.
# [4] = tested on: guinea pigs; assay: Toxicity / tolerability in guinea pigs; type: in vivo, guinea pig; settings: p.o. and i.p.
# Description: as §1
# [5] = tested on: T Lymphoblasts; assay: T Lymphoblasts, thymidine incorporation; type: cell-based; settings: no stimulus
# Description: as §2
# [6] = tested on: dogs; assay: Toxicity / tolerability in dogs; type: in vivo, dog
# Description: as §1
# [7] = tested on: Phagocytes (PMNs); assay: Phagocytes (PMNs), zymosan, chemiluminescence; type: cell-based; settings: stimulus zymosan
# Description: as §2
# [8] = tested on: Lymphocytes; assay: Lymphocytes, ConA, thymidine incorporation; type: cell-based; settings: Lymphocyte; stimulus ConA
# Description: as §2
# [9] = target: PDE III; assay: PDE III inhibition, isolated human enzyme preparations; type: biochemical; settings: isolated human enzyme preparation
# Method: (§3) The IC50 values of the compound from Example 2b were determined to be 2×10^-5 mol/l (PDE IV) and 8×10^-5 mol/l (PDE III) on isolated human enzyme preparations.
# [10] = tested on: rats; assay: Toxicity / tolerability in rats; type: in vivo, rat
# Description: as §1
# [11] = tested on: Lymphocytes; assay: Lymphocytes, mixed lymphocytes reaction, thymidine incorporation; type: cell-based; settings: Lymphocyte; stimulus mixed lymphocytes reaction
# Description: as §2
# [12] = tested on: Basophilic granulocytes; assay: Basophilic granulocytes, anti-IgE antibody, proteinase release; type: cell-based; settings: stimulus anti-IgE antibody
# Description: as §2
# [13] = target: PDE IV; assay: PDE IV inhibition, isolated human enzyme preparations; type: biochemical; settings: isolated human enzyme preparation
# Method: as §3
# [14] = cited from earlier work
# [15] = conscious beagles, 24 mg/kg, up to 6 h after administration
# [16] = conscious beagles, 24 mg/kg, observation period up to 6 h
smiles,measurement,setting,value
"c1ccn2c(=Nc3ccncc3)snc2c1 [Example 2b, 3-(4-Pyridinylimino)-3H-[1,2,4]thiadiazolo[4,3-a]pyridine]",tolerability,[1],well tolerated
same,arterial blood pressure,[2]; [15],remained constant
same,heart rate,[2]; [15],remained constant
same,DBP,"[2]; edible oil + 2% DMSO, 30 min, preliminary value 66",63 mmHg
same,MAP,"[2]; edible oil + 2% DMSO, 30 min, preliminary value 111",113 mmHg
same,SBP,"[2]; edible oil + 2% DMSO, 30 min, preliminary value 171",181 mmHg
same,DBP,"[2]; edible oil + 2% DMSO, 60 min, preliminary value 66",57 mmHg
same,HR,"[2]; edible oil + 2% DMSO, 60 min, preliminary value 79",82 beats/min
same,MAP,"[2]; edible oil + 2% DMSO, 60 min, preliminary value 111",109 mmHg
same,SBP,"[2]; edible oil + 2% DMSO, 60 min, preliminary value 171",178 mmHg
same,DBP,"[2]; edible oil + 2% DMSO, 90 min, preliminary value 66",58 mmHg
same,HR,"[2]; edible oil + 2% DMSO, 90 min, preliminary value 79",86 beats/min
same,MAP,"[2]; edible oil + 2% DMSO, 90 min, preliminary value 111",107 mmHg
same,SBP,"[2]; edible oil + 2% DMSO, 90 min, preliminary value 171",173 mmHg
same,DBP,"[2]; edible oil + 2% DMSO, 120 min, preliminary value 66",60 mmHg
same,HR,"[2]; edible oil + 2% DMSO, 120 min, preliminary value 79",82 beats/min
same,MAP,"[2]; edible oil + 2% DMSO, 120 min, preliminary value 111",109 mmHg
same,SBP,"[2]; edible oil + 2% DMSO, 120 min, preliminary value 171",175 mmHg
same,DBP,"[2]; edible oil + 2% DMSO, 150 min, preliminary value 66",63 mmHg
same,HR,"[2]; edible oil + 2% DMSO, 150 min, preliminary value 79",82 beats/min
same,MAP,"[2]; edible oil + 2% DMSO, 150 min, preliminary value 111",113 mmHg
same,SBP,"[2]; edible oil + 2% DMSO, 150 min, preliminary value 171",179 mmHg
same,DBP,"[2]; edible oil + 2% DMSO, 180 min, preliminary value 66",66 mmHg
same,HR,"[2]; edible oil + 2% DMSO, 180 min, preliminary value 79",87 beats/min
same,MAP,"[2]; edible oil + 2% DMSO, 180 min, preliminary value 111",114 mmHg
same,SBP,"[2]; edible oil + 2% DMSO, 180 min, preliminary value 171",179 mmHg
same,DBP,"[2]; edible oil + 2% DMSO, 210 min, preliminary value 66",68 mmHg
same,HR,"[2]; edible oil + 2% DMSO, 210 min, preliminary value 79",86 beats/min
same,MAP,"[2]; edible oil + 2% DMSO, 210 min, preliminary value 111",114 mmHg
same,SBP,"[2]; edible oil + 2% DMSO, 210 min, preliminary value 171",174 mmHg
same,DBP,"[2]; edible oil + 2% DMSO, 240 min, preliminary value 66",64 mmHg
same,HR,"[2]; edible oil + 2% DMSO, 240 min, preliminary value 79",93 beats/min
same,MAP,"[2]; edible oil + 2% DMSO, 240 min, preliminary value 111",109 mmHg
same,SBP,"[2]; edible oil + 2% DMSO, 240 min, preliminary value 171",169 mmHg
same,DBP,"[2]; edible oil + 2% DMSO, 300 min, preliminary value 66",65 mmHg
same,HR,"[2]; edible oil + 2% DMSO, 300 min, preliminary value 79",92 beats/min
same,MAP,"[2]; edible oil + 2% DMSO, 300 min, preliminary value 111",110 mmHg
same,SBP,"[2]; edible oil + 2% DMSO, 300 min, preliminary value 171",169 mmHg
same,DBP,"[2]; edible oil + 2% DMSO, 360 min, preliminary value 66",70 mmHg
same,HR,"[2]; edible oil + 2% DMSO, 360 min, preliminary value 79",91 beats/min
same,MAP,"[2]; edible oil + 2% DMSO, 360 min, preliminary value 111",115 mmHg
same,SBP,"[2]; edible oil + 2% DMSO, 360 min, preliminary value 171",174 mmHg
same,HR,"[2]; edible oil + 2% DMSO, 1 ml/kg, 30 min, preliminary value 79, average n=5",117 beats/min
same,DBP,"[2]; methyl cellulose 1% + 2% DMSO, 30 min, preliminary value 70",65 mmHg
same,MAP,"[2]; methyl cellulose 1% + 2% DMSO, 30 min, preliminary value 114",114 mmHg
same,SBP,"[2]; methyl cellulose 1% + 2% DMSO, 30 min, preliminary value 172",179 mmHg
same,DBP,"[2]; methyl cellulose 1% + 2% DMSO, 60 min, preliminary value 70",66 mmHg
same,HR,"[2]; methyl cellulose 1% + 2% DMSO, 60 min, preliminary value 83",79 beats/min
same,MAP,"[2]; methyl cellulose 1% + 2% DMSO, 60 min, preliminary value 114",114 mmHg
same,SBP,"[2]; methyl cellulose 1% + 2% DMSO, 60 min, preliminary value 172",178 mmHg
same,DBP,"[2]; methyl cellulose 1% + 2% DMSO, 90 min, preliminary value 70",63 mmHg
same,HR,"[2]; methyl cellulose 1% + 2% DMSO, 90 min, preliminary value 83",83 beats/min
same,MAP,"[2]; methyl cellulose 1% + 2% DMSO, 90 min, preliminary value 114",110 mmHg
same,SBP,"[2]; methyl cellulose 1% + 2% DMSO, 90 min, preliminary value 172",172 mmHg
same,DBP,"[2]; methyl cellulose 1% + 2% DMSO, 120 min, preliminary value 70",64 mmHg
same,HR,"[2]; methyl cellulose 1% + 2% DMSO, 120 min, preliminary value 83",80 beats/min
same,MAP,"[2]; methyl cellulose 1% + 2% DMSO, 120 min, preliminary value 114",111 mmHg
same,SBP,"[2]; methyl cellulose 1% + 2% DMSO, 120 min, preliminary value 172",173 mmHg
same,DBP,"[2]; methyl cellulose 1% + 2% DMSO, 150 min, preliminary value 70",64 mmHg
same,HR,"[2]; methyl cellulose 1% + 2% DMSO, 150 min, preliminary value 83",81 beats/min
same,MAP,"[2]; methyl cellulose 1% + 2% DMSO, 150 min, preliminary value 114",112 mmHg
same,SBP,"[2]; methyl cellulose 1% + 2% DMSO, 150 min, preliminary value 172",175 mmHg
same,DBP,"[2]; methyl cellulose 1% + 2% DMSO, 180 min, preliminary value 70",65 mmHg
same,HR,"[2]; methyl cellulose 1% + 2% DMSO, 180 min, preliminary value 83",76 beats/min
same,MAP,"[2]; methyl cellulose 1% + 2% DMSO, 180 min, preliminary value 114",114 mmHg
same,SBP,"[2]; methyl cellulose 1% + 2% DMSO, 180 min, preliminary value 172",178 mmHg
same,DBP,"[2]; methyl cellulose 1% + 2% DMSO, 210 min, preliminary value 70",63 mmHg
same,HR,"[2]; methyl cellulose 1% + 2% DMSO, 210 min, preliminary value 83",84 beats/min
same,MAP,"[2]; methyl cellulose 1% + 2% DMSO, 210 min, preliminary value 114",109 mmHg
same,SBP,"[2]; methyl cellulose 1% + 2% DMSO, 210 min, preliminary value 172",169 mmHg
same,DBP,"[2]; methyl cellulose 1% + 2% DMSO, 240 min, preliminary value 70",62 mmHg
same,HR,"[2]; methyl cellulose 1% + 2% DMSO, 240 min, preliminary value 83",74 beats/min
same,MAP,"[2]; methyl cellulose 1% + 2% DMSO, 240 min, preliminary value 114",108 mmHg
same,SBP,"[2]; methyl cellulose 1% + 2% DMSO, 240 min, preliminary value 172",167 mmHg
same,DBP,"[2]; methyl cellulose 1% + 2% DMSO, 300 min, preliminary value 70",62 mmHg
same,HR,"[2]; methyl cellulose 1% + 2% DMSO, 300 min, preliminary value 83",77 beats/min
same,MAP,"[2]; methyl cellulose 1% + 2% DMSO, 300 min, preliminary value 114",108 mmHg
same,SBP,"[2]; methyl cellulose 1% + 2% DMSO, 300 min, preliminary value 172",169 mmHg
same,DBP,"[2]; methyl cellulose 1% + 2% DMSO, 360 min, preliminary value 70",65 mmHg
same,HR,"[2]; methyl cellulose 1% + 2% DMSO, 360 min, preliminary value 83",75 beats/min
same,MAP,"[2]; methyl cellulose 1% + 2% DMSO, 360 min, preliminary value 114",110 mmHg
same,SBP,"[2]; methyl cellulose 1% + 2% DMSO, 360 min, preliminary value 172",170 mmHg
same,HR,"[2]; methyl cellulose 1% + 2% DMSO, 1 ml/kg, 30 min, preliminary value 83, average n=5",85 beats/min
same,IC50,[3],< 3 µg/mL
same,tolerability,[4],well tolerated
same,IC50,[5],6.4 µg/mL
same,behaviour of the dogs,"[6]; conscious beagles, 24 mg/kg",normal
same,emetic action,"[6]; conscious beagles, 24 mg/kg",not detectable
same,blood glucose,[6]; [16],remained unchanged
same,triglycerides,[6]; [16],remained unchanged
same,tolerability,"[6]; dogs, p.o.",well tolerated
same,GPT,"[6]; sign of liver damage, conscious beagles, 24 mg/kg, observation period up to 6 h",remained unchanged
same,IC50,[7],27 µg/mL
same,IC50,[8],2.8 µg/mL
same,IC50,[9],80 µM
same,"side effects (behaviour, body weight, histology, haematological and clinicochemical parameters)","[10]; after 2 weeks, 40 mg/kg daily",not possible to determine any side effects
same,tolerability,[10]; p.o. and i.p.,well tolerated
same,IC50,[11],7.6 µg/mL
same,IC50,[12],10 µg/mL
same,IC50,[13],20 µM
Cn1c(=O)c2[nH]cnc2n(C)c1=O [theophylline],side effects,[14]; at slightly increased doses,"nausea, giddiness, tachycardia and tremor"
same,therapeutic breadth,[14]; employed for therapy,small therapeutic breadth
